This passage reports IC50 and K inact results from ChEMBL document CHEMBL1127657, “Haloperidol-based irreversible inhibitors of the HIV-1 and HIV-2 proteases” (J Med Chem, 1994).

Experiment [1] deals with Human immunodeficiency virus type 1 protease (Human immunodeficiency virus 1, UniProt Q72874). Put plainly: In vitro inhibition of recombinant HIV-1 protease expressed in Escherichia coli strain D1210.
Experiment [2] addresses T1, Human rhinovirus A protease (Human rhinovirus sp.) (UniProt Q4U254).
T1 sequence (whole entry): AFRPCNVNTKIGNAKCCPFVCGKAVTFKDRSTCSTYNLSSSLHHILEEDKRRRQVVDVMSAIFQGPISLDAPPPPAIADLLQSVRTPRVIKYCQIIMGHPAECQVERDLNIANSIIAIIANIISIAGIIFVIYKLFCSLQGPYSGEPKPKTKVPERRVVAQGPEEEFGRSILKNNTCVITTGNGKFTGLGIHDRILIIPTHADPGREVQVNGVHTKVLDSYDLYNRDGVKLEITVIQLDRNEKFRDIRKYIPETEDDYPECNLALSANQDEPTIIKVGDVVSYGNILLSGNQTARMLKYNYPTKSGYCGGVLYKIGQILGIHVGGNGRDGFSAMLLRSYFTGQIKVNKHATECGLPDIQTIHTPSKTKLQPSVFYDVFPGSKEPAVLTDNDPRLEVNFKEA
To be noted: Human immunodeficiency virus 2.

Experiment [3] addresses Human immunodeficiency virus type 1 protease (Human immunodeficiency virus 1) (UniProt Q72874).
Description: The irreversibility of the inactivation reaction of HIV-1 PR was assessed

What is called IC50 is the concentration that gives 50% inhibition. `O=C(C#CCN1CCC(O)(c2ccc(Cl)cc2)CC1)c1cccc(-c2ccccc2)c1`: in experiment [1], the 50% inhibitory concentration (IC50) came out at 63 µM.

Turning to `O=C(/C=C/CN1CCC(O)(c2ccc(Cl)cc2)CC1)c1ccc(F)cc1`, in experiment [1], the IC50 worked out at 80 µM.

Regarding `O=C(C#CCN1CCC(O)(c2ccc(Cl)cc2)CC1)c1ccc(-c2ccccc2)cc1`, the IC50 in experiment [1] turned out to be 100 µM.

On to `O=C(/C=C/C[N+]1([O-])CCC(O)(c2ccc(Cl)cc2)CC1)c1ccc(F)cc1` (centres undefined), for which the 50% inhibitory concentration (IC50) in experiment [1] was 30 µM. The K inact in experiment [2] was 4.33 min⁻¹; in experiment [3], 86 min⁻¹.

For the compound `OC1(C#CC2(c3ccccc3)CO2)CCN(Cc2ccccc2)CC1` (centres undefined), in experiment [1], the concentration for half-maximal inhibition (IC50) was found to be 725 µM.

Take `OC1(c2ccc(Cl)cc2)CCN(CC#CC2(c3ccccc3)CO2)CC1` (centres undefined): the IC50 in experiment [1] worked out at 150 µM.

Regarding `O=C(C#CCN1CCC(O)(c2ccc(Cl)cc2)CC1)c1ccccc1`, the IC50 in experiment [1] worked out at 20 µM.
